Experimental data taken from PubChem BioAssay (NCI).
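Dose response: 5 concentrations. Exposure: 48 h. Format: 96-well plates. Endpoint: linear interpolation; highest concentration if not reached. TGI: total growth inhibition.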

Assays:
Assay in all cases: NCI anticancer screen, dose series, 48 h
OVCAR-8 ovarian = system: OVCAR-8 ovarian
HT29 colon = system: HT29 colon
CAKI-1 renal = system: CAKI-1 renal
NCI-H522 lung = system: NCI-H522 lung
DU-145 prostate = system: DU-145 prostate
XF 498 CNS = system: XF 498 CNS
HOP-62 NSCLC = system: HOP-62 NSCLC
IGROV1 ovarian = system: IGROV1 ovarian
KM12 colon = system: KM12 colon
MOLT-4 leukemia = system: MOLT-4 leukemia
SNB-75 CNS = system: SNB-75 CNS
NCI-H460 lung = system: NCI-H460 lung
SK-MEL-5 melanoma = system: SK-MEL-5 melanoma
MDA-MB-435 = system: MDA-MB-435
OVCAR-3 ovarian = system: OVCAR-3 ovarian
SF-268 CNS = system: SF-268 CNS
OVCAR-5 ovarian = system: OVCAR-5 ovarian
ACHN renal = system: ACHN renal
MDA-N = system: MDA-N
SF-539 CNS = system: SF-539 CNS
NCI-H226 lung = system: NCI-H226 lung
NCI-H23 lung = system: NCI-H23 lung
SW-620 colon = system: SW-620 colon
CCRF-CEM leukemia = system: CCRF-CEM leukemia
EKVX NSCLC = system: EKVX NSCLC
MCF7 breast = system: MCF7 breast
RXF-631 renal = system: RXF-631 renal
SF-295 CNS = system: SF-295 CNS
SK-MEL-28 melanoma = system: SK-MEL-28 melanoma
TK-10 renal = system: TK-10 renal
LOX IMVI melanoma = system: LOX IMVI melanoma
KM20L2 colon = system: KM20L2 colon
HOP-92 NSCLC = system: HOP-92 NSCLC
OVCAR-4 ovarian = system: OVCAR-4 ovarian
RPMI-8226 leukemia = system: RPMI-8226 leukemia
LXFL 529 NSCLC = system: LXFL 529 NSCLC
HS 578T breast = system: HS 578T breast
786-0 renal = system: 786-0 renal
T-47D breast = system: T-47D breast
U251 CNS = system: U251 CNS
K-562 leukemia = system: K-562 leukemia
PC-3 prostate = system: PC-3 prostate
MALME-3M melanoma = system: MALME-3M melanoma
A498 renal = system: A498 renal
MDA-MB-231 breast = system: MDA-MB-231 breast
HL-60(TB) leukemia = system: HL-60(TB) leukemia
A549 NSCLC = system: A549 NSCLC
HCT-116 colon = system: HCT-116 colon
DLD-1 colon = system: DLD-1 colon
COLO 205 colon = system: COLO 205 colon
SK-OV-3 ovarian = system: SK-OV-3 ovarian
M14 melanoma = system: M14 melanoma
UACC-62 melanoma = system: UACC-62 melanoma
SNB-78 CNS = system: SNB-78 CNS
NCI/ADR-RES ovarian = system: NCI/ADR-RES ovarian
HCC-2998 colon = system: HCC-2998 colon
RXF 393 renal = system: RXF 393 renal
SNB-19 CNS = system: SNB-19 CNS
SR leukemia = system: SR leukemia
BT-549 breast = system: BT-549 breast
HCT-15 colon = system: HCT-15 colon
SK-MEL-2 melanoma = system: SK-MEL-2 melanoma
UO-31 renal = system: UO-31 renal
DMS 273 small cell lung = system: DMS 273 small cell lung
M19-MEL melanoma = system: M19-MEL melanoma
DMS 114 small cell lung = system: DMS 114 small cell lung
UACC-257 melanoma = system: UACC-257 melanoma
SN12C renal = system: SN12C renal

## O=C1C=CC(=O)c2c(O)c(CO)c(CO)c(O)c21
OVCAR-8 ovarian
  TGI: 2040 nM
HT29 colon
  TGI: 741 nM
CAKI-1 renal
  TGI: 875 nM
NCI-H522 lung
  TGI: 239 nM
DU-145 prostate
  TGI: 3.27 µM
XF 498 CNS
  TGI: 665 nM
HOP-62 NSCLC
  TGI: 2400 nM
IGROV1 ovarian
  TGI: 4.14 µM
KM12 colon
  TGI: 3.19 µM
MOLT-4 leukemia
  TGI: 188 nM
SNB-75 CNS
  TGI: 1640 nM
NCI-H460 lung
  TGI: 2790 nM
SK-MEL-5 melanoma
  TGI: 1120 nM
MDA-MB-435
  TGI: 1660 nM
OVCAR-3 ovarian
  TGI: 1710 nM
SF-268 CNS
  TGI: 3.93 µM
OVCAR-5 ovarian
  TGI: 3.54 µM
ACHN renal
  TGI: 1050 nM
MDA-N
  TGI: 736 nM
SF-539 CNS
  TGI: 1710 nM
NCI-H226 lung
  TGI: 5.03 µM
NCI-H23 lung
  TGI: 1300 nM
SW-620 colon
  TGI: 288 nM
CCRF-CEM leukemia
  TGI: 195 nM
EKVX NSCLC
  TGI: 5.03 µM
MCF7 breast
  TGI: 337 nM
RXF-631 renal
  TGI: 2550 nM
SF-295 CNS
  TGI: 3.19 µM
SK-MEL-28 melanoma
  TGI: 960 nM
TK-10 renal
  TGI: 842 nM
LOX IMVI melanoma
  TGI: 674 nM
KM20L2 colon
  TGI: 2250 nM
HOP-92 NSCLC
  TGI: 944 nM
OVCAR-4 ovarian
  TGI: 581 nM
RPMI-8226 leukemia
  TGI: 814 nM
LXFL 529 NSCLC
  TGI: 351 nM
HS 578T breast
  TGI: 4.71 µM
786-0 renal
  TGI: 723 nM
T-47D breast
  TGI: 1520 nM
U251 CNS
  TGI: 5.35 µM
K-562 leukemia
  TGI: 13.4 µM
PC-3 prostate
  TGI: 4.37 µM
MALME-3M melanoma
  TGI: 467 nM
A498 renal
  TGI: 3.64 µM
MDA-MB-231 breast
  TGI: 2740 nM
HL-60(TB) leukemia
  TGI: 405 nM
A549 NSCLC
  TGI: 5.58 µM
HCT-116 colon
  TGI: 662 nM
DLD-1 colon
  TGI: 202 nM
COLO 205 colon
  TGI: 171 nM
SK-OV-3 ovarian
  TGI: 18 µM
M14 melanoma
  TGI: 411 nM
UACC-62 melanoma
  TGI: 1880 nM
SNB-78 CNS
  TGI: 3.52 µM
NCI/ADR-RES ovarian
  TGI: 8.2 µM
HCC-2998 colon
  TGI: 4.78 µM
RXF 393 renal
  TGI: 939 nM
SNB-19 CNS
  TGI: 6.13 µM
SR leukemia
  TGI: 481 nM
BT-549 breast
  TGI: 593 nM
HCT-15 colon
  TGI: 490 nM
SK-MEL-2 melanoma
  TGI: 2580 nM
UO-31 renal
  TGI: 2200 nM
DMS 273 small cell lung
  TGI: 1420 nM
M19-MEL melanoma
  TGI: 216 nM
DMS 114 small cell lung
  TGI: 878 nM
UACC-257 melanoma
  TGI: 883 nM
SN12C renal
  TGI: 774 nM
